Measurements: patent US20210127673A1, “HERBICIDES” (SYNGENTA PARTICIPATIONS AG, priority 2016, published 2021)

How the values were obtained:
Format in all cases: in vivo
Details in all cases: evaluated after 13 days
Lolium perenne (LOLPE) [1] = experiment: Pre-emergence herbicidal activity, Lolium perenne; set-up: key: 5=total damage to plant; 0=no damage to plant
How it was run: (§1)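 Pots of seeds were sprayed one day after sowing (pre-emergence) with compound in acetone/water (50:50) plus 0.5% Tween 20, then grown in a glasshouse at 24/16 °C day/night, 14 h light, 65% humidity. Damage scored 0–5 (5 = total damage) after 13 days.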

[2] = system: Triticum aestivium (TRZAW); experiment: Post-emergence herbicidal activity, Triticum aestivium; set-up: key: 5=total damage to plant; 0=no damage to plant
How it was run: (§2)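 Pot-grown plants sprayed 8 days after sowing with compound in acetone/water (50:50) containing 0.5% Tween 20, in a glasshouse at 24/16 °C day/night, 14 h light, 65% humidity. Damage scored 13 days after spraying on a 0–5 scale (5 = total damage, 0 = none).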

Setaria faberi (SETFA) [3] = experiment: Pre-emergence herbicidal activity, Setaria faberi; set-up: key: 5=total damage to plant; 0=no damage to plant
How it was run: as §1

[4] = system: Alopecurus myosuroides (ALOMY); experiment: Pre-emergence herbicidal activity, Alopecurus myosuroides; set-up: key: 5=total damage to plant; 0=no damage to plant
How it was run: as §1

Setaria faberi (SETFA) [5] = experiment: Post-emergence herbicidal activity, Setaria faberi; set-up: key: 5=total damage to plant; 0=no damage to plant
How it was run: as §2

Avena fatua (AVEFA) [6] = experiment: Pre-emergence herbicidal activity, Avena fatua; set-up: key: 5=total damage to plant; 0=no damage to plant
How it was run: as §1

Lolium perenne (LOLPE) [7] = experiment: Post-emergence herbicidal activity, Lolium perenne
How it was run: as §2

[8] = system: Alopecurus myosuroides (ALOMY); experiment: Post-emergence herbicidal activity, Alopecurus myosuroides; set-up: key: 5=total damage to plant; 0=no damage to plant
How it was run: as §2

Avena fatua (AVEFA) [9] = experiment: Post-emergence herbicidal activity, Avena fatua
How it was run: as §2

[10] = system: Echinochloa crus-galli (ECHCG); experiment: Pre-emergence herbicidal activity, Echinochloa crus-galli
How it was run: as §1

[11] = system: Echinochloa crus-galli (ECHCG); experiment: Post-emergence herbicidal activity, Echinochloa crus-galli; set-up: key: 5=total damage to plant; 0=no damage to plant
How it was run: as §2

[12] = system: Triticum aestivium (TRZAW); experiment: Pre-emergence herbicidal activity, Triticum aestivium; set-up: key: 5=total damage to plant; 0=no damage to plant
How it was run: as §1

| SMILES | Control of LOLPE after pre-emergence application (score 0-5) (Lolium perenne (LOLPE) [1]; 1000 g/ha) | Control of TRAZW after post-emergence application (score 0-5) ([2]; 1000 g/ha) | Control of SETFA after pre-emergence application (score 0-5) (Setaria faberi (SETFA) [3]; 1000 g/ha) | Control of ALOMY after pre-emergence application (score 0-5) ([4]; 1000 g/ha) | Control of SETFA after post-emergence application (score 0-5) (Setaria faberi (SETFA) [5]; 1000 g/ha) | Control of AVEFA after pre-emergence application (score 0-5) (Avena fatua (AVEFA) [6]; 1000 g/ha) | Control of LOLPE after post-emergence application (score 0-5) (Lolium perenne (LOLPE) [7]; 1000 g/ha) | Control of ALOMY after post-emergence application (score 0-5) ([8]; 1000 g/ha) | Control of AVEFA after post-emergence application (score 0-5) (Avena fatua (AVEFA) [9]; 1000 g/ha) | Control of ECHCG after pre-emergence application (score 0-5) ([10]; 1000 g/ha) | Control of ECHCG after post-emergence application (score 0-5) ([11]; 1000 g/ha) | Control of TRAZW after pre-emergence application (score 0-5) ([12]; 1000 g/ha) | also measured |
| --- | --- | --- | --- | --- | --- | --- | --- | --- | --- | --- | --- | --- | --- |
| O=C(NCC1CC1)Nc1ccc(-c2cncc(F)c2)nc1C(F)(F)F [Compound B104] |  |  |  |  |  |  |  |  |  |  |  |  | Control of LOLPE after pre-emergence application (score 0-5) (Lolium perenne (LOLPE) [1]; 250 g/ha): 1; Control of TRAZW after post-emergence application (score 0-5) ([2]; 250 g/ha): 0; Control of SETFA after pre-emergence application (score 0-5) (Setaria faberi (SETFA) [3]; 250 g/ha): 5; Control of ALOMY after pre-emergence application (score 0-5) ([4]; 250 g/ha): 0; Control of SETFA after post-emergence application (score 0-5) (Setaria faberi (SETFA) [5]; 250 g/ha): 5; Control of AVEFA after pre-emergence application (score 0-5) (Avena fatua (AVEFA) [6]; 250 g/ha): 0; Control of LOLPE after post-emergence application (score 0-5) (Lolium perenne (LOLPE) [7]; 250 g/ha): 1; Control of ALOMY after post-emergence application (score 0-5) ([8]; 250 g/ha): 1; Control of AVEFA after post-emergence application (score 0-5) (Avena fatua (AVEFA) [9]; 250 g/ha): 3; Control of ECHCG after pre-emergence application (score 0-5) ([10]; 250 g/ha): 2; Control of ECHCG after post-emergence application (score 0-5) ([11]; 250 g/ha): 3; Control of TRAZW after pre-emergence application (score 0-5) ([12]; 250 g/ha): 0 |
| O=C(Nc1cncnc1)Nc1ccc(-c2cncc(F)c2)nc1C(F)(F)F [Compound B70] | 0 | 1 | 2 | 0 | 3 | 0 | 1 | 0 | 1 | 1 | 3 | 0 |  |
| O=C(Nc1ccc(-c2cncc(F)c2)nc1C(F)(F)F)NC1CC1 [Compound B89] | 1 | 1 | 5 | 0 | 5 | 2 | 2 | 0 | 4 | 4 | 5 | 0 |  |
| COCCOC(=O)Nc1ccc(-c2cncc(F)c2)nc1C(F)(F)F [Compound B59] | 2 | 1 | 3 | 1 | 4 | 2 | 3 | 1 | 3 | 4 | 5 | 0 |  |
| CN(C(N)=O)c1ccc(-c2cncc(F)c2)nc1C(F)(F)F [Compound B72] | 0 | 1 | 4 | 0 | 4 | 0 | 1 | 1 | 1 | 2 | 4 | 0 |  |
